# Reference: PMC10132767, “Bacterial catabolism of membrane phospholipids links marine biogeochemical cycles” (Science Advances, 2023)
# Biological target: T1, EtoX (TRAP transporter, periplasmic ethanolamine binding protein, MED193_10041)
# T1 construct: full-length codon optimized, C-terminal His-tag
# Test: microscale thermophoresis with purified recombinant EtoX
# Parameters: species or system Phaeobacter sp. MED193
smiles,measurement,value
NCCO [ethanolamine],Kd,7.88 ± 1.88 µM
